Counter-ions that a name gives are not always drawn.
Assays:
BACE2 [1] = target: T1, BACE2 (Rattus norvegicus, UniProt Q6IE75); experiment: Assay for BACE inhibition by measuring cellular TMEM27 cleavage; format: cell-based; details: INS-TMEM27 (INS1e-derived) cells, ELISA of shed human TMEM27 in supernatant;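 further: inhibitor added 2 h before doxycycline-induced hTMEM27 expression, supernatant collected after further 46 h, endogenous BACE2 activity read as reduced TMEM27 shedding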
T1 construct: endogenous cellular BACE2 in the Ins1e rat cell line; endogenous in cells; host or cells: INS-TMEM27 (INS1e-derived rat cell line with doxycycline-inducible full-length hTMEM27)
T1 sequence (Q6IE75 63-514): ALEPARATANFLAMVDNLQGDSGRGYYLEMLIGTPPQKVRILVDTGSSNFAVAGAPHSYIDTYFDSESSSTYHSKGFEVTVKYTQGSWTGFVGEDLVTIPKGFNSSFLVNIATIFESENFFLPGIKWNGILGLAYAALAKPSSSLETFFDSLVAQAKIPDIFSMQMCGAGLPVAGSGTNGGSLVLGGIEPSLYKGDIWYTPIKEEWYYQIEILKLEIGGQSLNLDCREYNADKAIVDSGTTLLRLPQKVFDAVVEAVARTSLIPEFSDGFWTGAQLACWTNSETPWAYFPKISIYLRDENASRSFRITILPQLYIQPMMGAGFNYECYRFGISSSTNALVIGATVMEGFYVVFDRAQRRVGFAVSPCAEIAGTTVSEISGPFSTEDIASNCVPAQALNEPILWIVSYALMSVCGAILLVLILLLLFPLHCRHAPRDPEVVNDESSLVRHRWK

BACE2 [2] = target: T2, BACE2 (Homo sapiens, UniProt Q9Y5Z0); experiment: Assay A: binding studies using SPR based methods, immobilised BACE2; details: CM5 chip, immobilised BACE2 enzyme ectodomain, acetate buffer pH 4.6, 4% DMSO
T2 construct: BACE2 enzyme ectodomain (derived from plasmid “pET17b-T7-hu proBACE2”); T7 (N); made in house
T2 sequence (Q9Y5Z0 63-473 limits assumed): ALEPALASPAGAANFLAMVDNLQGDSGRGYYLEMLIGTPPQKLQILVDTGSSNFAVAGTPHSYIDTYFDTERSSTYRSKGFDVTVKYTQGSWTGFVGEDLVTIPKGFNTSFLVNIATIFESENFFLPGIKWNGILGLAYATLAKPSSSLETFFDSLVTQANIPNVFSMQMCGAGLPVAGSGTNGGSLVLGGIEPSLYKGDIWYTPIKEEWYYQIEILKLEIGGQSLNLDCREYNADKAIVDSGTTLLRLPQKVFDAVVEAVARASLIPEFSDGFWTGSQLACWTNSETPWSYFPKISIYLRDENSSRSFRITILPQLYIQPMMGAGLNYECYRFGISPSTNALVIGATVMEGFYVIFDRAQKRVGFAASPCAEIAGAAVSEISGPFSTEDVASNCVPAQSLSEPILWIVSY

BACE1 [3] = target: T3, BACE1 (Homo sapiens, UniProt P56817); experiment: Cellular Abeta-lowering assay; format: cell-based; parameters: endogenous in cells; host or cells: HEK293 stably transfected with human APP695 wt; details: HEK293 cells stably transfected with human APP wt (APP695), Aβ40 ELISA of supernatant after 18-20 hrs
BACE1 [4] = target: T3, BACE1; experiment: Assay A: binding studies using SPR based methods, immobilised BACE1; parameters: 6his-tagged full length BACE 1 expressed in SF9 cells; 6His; made in house; host or cells: SF9 insect cells; details: CM5 chip, immobilised 6his-tagged full length BACE 1, acetate buffer pH 4.6, 4% DMSO;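 further: KD from a 1:1 kinetic fit (koff/kon) of real-time association and dissociation curves, or for fast binders from end-of-association equilibrium responses plotted against log concentration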

T3 sequence (P56817 46-501): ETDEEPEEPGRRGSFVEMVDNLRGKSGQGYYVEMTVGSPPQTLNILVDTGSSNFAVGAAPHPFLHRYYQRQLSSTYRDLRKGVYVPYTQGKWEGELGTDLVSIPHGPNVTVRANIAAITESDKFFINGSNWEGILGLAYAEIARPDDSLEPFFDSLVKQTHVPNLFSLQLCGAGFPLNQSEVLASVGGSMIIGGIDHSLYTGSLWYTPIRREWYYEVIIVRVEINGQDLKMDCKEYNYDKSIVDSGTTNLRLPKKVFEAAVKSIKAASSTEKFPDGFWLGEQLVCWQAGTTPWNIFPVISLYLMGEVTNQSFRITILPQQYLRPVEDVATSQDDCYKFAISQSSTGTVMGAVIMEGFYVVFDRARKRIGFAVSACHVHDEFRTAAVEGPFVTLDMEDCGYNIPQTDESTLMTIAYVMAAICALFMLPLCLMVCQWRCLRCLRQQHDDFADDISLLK

IC50 (BACE2 [1]) [µM] | Kd (BACE2 [2]) [µM] | IC50 (BACE1 [3]) [µM] | Kd (BACE1 [4]) [µM] | SMILES
0.021 | 0.044 | – | – | CC1(c2cccc(NC(=O)c3ncc(F)cc3F)c2)COCC(N)=N1 (racemic) [Example 1, (RS)-3,5-Difluoro-pyridine-2-carboxylic acid [3-(5-amino-3-methyl-3,6-dihydro-2H-[1,4]oxazin-3-yl)-phenyl]-amide]
0.017 | – | 0.02 | – | Cc1nc(C(=O)Nc2cccc(C3(C)COCC(N)=N3)c2)co1 (racemic) [Example 12, (RS)-2-methyl-oxazole-4-carboxylic acid [3-(5-amino-3-methyl-3,6-dihydro-2H-[1,4]oxazin-3-yl)-phenyl]-amide]
0.006 | 0.008 | – | – | CC1(c2cc(NC(=O)c3ccc(Cl)cn3)ccc2F)COCC(N)=N1 (racemic) [Example 20, (RS)-5-chloro-pyridine-2-carboxylic acid [3-(5-amino-3-methyl-3,6-dihydro-2H-[1,4]oxazin-3-yl)-4-fluoro-phenyl]-amide]
2.23 | – | 0.375 | – | CC1(c2cc(NC(=O)C(F)(F)C(F)(F)F)ccc2F)COCC(N)=N1 (racemic) [Example 26, (RS)—N-[3-(5-Amino-3-methyl-3,6-dihydro-2H-[1,4]oxazin-3-yl)-4-fluoro-phenyl]-2,2,3,3,3-pentafluoro-propionamide]
– | 0.141 | 0.026 | 0.077 | CC1(c2cccc(NC(=O)c3ncc(C(F)(F)F)cc3Cl)c2)COCC(N)=N1 (racemic) [Example 33, 3-Chloro-5-trifluoromethyl-pyridine-2-carboxylic acid [3-((RS)-5-amino-3-methyl-3,6-dihydro-2H-[1,4]oxazin-3-yl)-phenyl]-amide]
– | > 10 | 1.18 | 0.194 | CC1(c2cc(NC(=O)c3ccc(-c4cnco4)cc3)ccc2F)COCC(N)=N1 (racemic) [Example 52, (RS)—N-[3-(5-amino-3-methyl-3,6-dihydro-2H-[1,4]oxazin-3-yl)-4-fluoro-phenyl]-4-oxazol-5-yl-benzamide]
0.32 | 1.8 | – | > 10 | CC1(c2cc(NC(=O)C3(C(F)(F)F)CC3)ccc2F)COCC(N)=N1 (racemic) [Example 57]
– | 0.117 | 0.14 | 0.112 | CC1(c2cccc(NC(=O)c3ccc(OCC4CC4)cn3)c2)COCC(N)=N1 (racemic) [Example 60, 5-cyclopropylmethoxy-pyridine-2-carboxylic acid [3-((RS)-5-amino-3-methyl-3,6-dihydro-2H-[1,4]oxazin-3-yl)-phenyl]-amide hydrochloride]
– | 4.68 | 0.39 | 0.44 | CC1(c2cccc(NC(=O)c3ccc(OCCF)cn3)c2)COCC(N)=N1 (racemic) [Example 61, 5-(2-fluoro-ethoxy)-pyridine-2-carboxylic acid [3-((RS)-5-amino-3-methyl-3,6-dihydro-2H-[1,4]oxazin-3-yl)-phenyl]-amide hydrochloride]
– | 7.34 | 0.27 | 5.52 | CC1(c2cccc(NC(=O)c3ccc(OCC(F)F)cn3)c2)COCC(N)=N1 (racemic) [Example 62, 5-(2,2-difluoro-ethoxy)-pyridine-2-carboxylic acid [3-((RS)-5-amino-3-methyl-3,6-dihydro-2H-[1,4]oxazin-3-yl)-phenyl]-amide hydrochloride]
– | 1.09 | 0.51 | 3.06 | CC1(c2cccc(NC(=O)c3ccncn3)c2)COCC(N)=N1 (racemic) [Example 63, pyrimidine-4-carboxylic acid [3-((RS)-5-amino-3-methyl-3,6-dihydro-2H-[1,4]oxazin-3-yl)-phenyl]-amide]
– | 7.82 | 0.66 | 0.483 | C=CCCOc1ccc(C(=O)Nc2cccc(C3(C)COCC(N)=N3)c2)nc1 (racemic) [Example 64, 5-but-3-enyloxy-pyridine-2-carboxylic acid [3-((RS)-5-amino-3-methyl-3,6-dihydro-2H-[1,4]oxazin-3-yl)-phenyl]-amide]
– | 1.12 | 0.18 | 2.47 | Cc1cnc(C(=O)Nc2cccc(C3(C)COCC(N)=N3)c2)cn1 (racemic) [Example 65, 5-methyl-pyrazine-2-carboxylic acid [3-((RS)-5-amino-3-methyl-3,6-dihydro-2H-[1,4]oxazin-3-yl)-phenyl]-amide]
– | 0.159 | 0.68 | 0.173 | CC1(c2cccc(NC(=O)c3ccc(OCc4ccccc4)cn3)c2)COCC(N)=N1 (racemic) [Example 66, 5-benzyloxy-pyridine-2-carboxylic acid [3-((RS)-5-amino-3-methyl-3,6-dihydro-2H-[1,4]oxazin-3-yl)-phenyl]-amide hydrochloride]
– | 0.988 | 0.015 | 0.093 | CC1(c2cc(NC(=O)c3ccc(-c4ccco4)cn3)ccc2F)COCC(N)=N1 (racemic) [Example 76, 5-furan-2-yl-pyridine-2-carboxylic acid [3-((RS)-5-amino-3-methyl-3,6-dihydro-2H-[1,4]oxazin-3-yl)-4-fluoro-phenyl]-amide]
– | 2.6 | 0.8 | 1.44 | CC1(c2cc(NC(=O)c3ccc(N4CCCC4)cn3)ccc2F)COCC(N)=N1 (racemic) [Example 77, 5-pyrrolidin-1-yl-pyridine-2-carboxylic acid [3-((RS)-5-amino-3-methyl-3,6-dihydro-2H-[1,4]oxazin-3-yl)-4-fluoro-phenyl]-amide]
– | 6.5 | 0.5 | 0.885 | CC1(c2cc(NC(=O)c3cc(-c4cccs4)on3)ccc2F)COCC(N)=N1 (racemic) [Example 78, 5-thiophen-2-yl-isoxazole-3-carboxylic acid [3-((RS)-5-amino-3-methyl-3,6-dihydro-2H-[1,4]oxazin-3-yl)-4-fluoro-phenyl]-amide]
0.002 | 0.004 | – | – | C[C@@]1(c2cc(NC(=O)c3ccc(Cl)cn3)ccc2F)COCC(N)=N1 [Example 21, (R)-5-chloro-pyridine-2-carboxylic acid [3-(5-amino-3-methyl-3,6-dihydro-2H-[1,4]oxazin-3-yl)-4-fluoro-phenyl]-amide]
0.004 | 0.003 | – | – | C[C@@]1(c2cc(NC(=O)c3ncc(Cl)cc3Cl)ccc2F)COCC(N)=N1 [Example 34, 3,5-dichloro-pyridine-2-carboxylic acid [3-((R)-5-amino-3-methyl-3,6-dihydro-2H-[1,4]oxazin-3-yl)-4-fluoro-phenyl]-amide]
– | 2.55 | 0.19 | 0.208 | C[C@@]1(c2cc(NC(=O)c3ccc(C#N)cc3F)ccc2F)COCC(N)=N1 [Example 42, N-[3-((R)-5-amino-3-methyl-3,6-dihydro-2H-[1,4]oxazin-3-yl)-4-fluoro-phenyl]-4-cyano-2-fluoro-benzamide]
0.046 | 2.3 | – | 6.4 | CC1(C)OCC(N)=N[C@]1(C)c1cc(NC(=O)C2(C(F)(F)F)CC2)ccc1F [Example 55, 1-trifluoromethyl-cyclopropanecarboxylic acid [3-((R)-5-amino-2,2,3-trimethyl-3,6-dihydro-2H-[1,4]oxazin-3-yl)-4-fluoro-phenyl]-amide]
